Experimental data as given in PubChem BioAssay AID2060504 (Molecular Pharmacology Branch, DTP, NCI, 2025).
“And” between values parts separate entries of the source, which are not always exact repeats. Equal entries are not always repeated. Blank lines part the entries; values can stand above or below the molecule they belong to.

Test system: 636577-100-R-J1-PDC complex spheroid viability
Assay: Anticancer human tumor 636577-100-R-J1-PDC patient-derived endometrial adenocarcinoma cell line growth inhibition [GQUAD]
Conditions: for viability, T/C: stronger effect = lower value
Source text: DNA G-quadruplex Stabilizer Agents in Combinations in Complex Spheroids
A high-throughput screen of multi-cell type tumor spheroids was designed to identify active combinations of DNA G-quadruplex stabilizer agents and targeted small molecules. Complex spheroids include a stromal component modeled by human endothelial cells (HUVEC) and fibroblasts modeled by human mesenchymal stem cells (MSCs). The concentration ranges selected for each drug and investigational agent were based upon clinically achievable concentrations if the clinical Cmax of the agent was known.
Compounds. The drugs and investigational agents: pidnarulex (CX-5461; NSC782164), APTO-253 (NSC789042), BRACO-19 (NSC847499), peposertib (NSC802822), ceralasertib (NSC780249), elimusertib (NSC800525), camonsertib (NSC841442), AZD-1390 (NSC803789), olaparib (NSC753686), talazoparib (NSC767125), ART-558 (NSC835418), sotorasib (NSC818433), MRTX-1133 (NSC836407), SN-38 (NSC673596), topotecan (NSC609699), etoposide (NSC141540), doxorubicin (NSC123127), gemcitabine (NSC613327), 5-fluorouracil (NSC19893), paclitaxel (NSC125973), vemurafenib (NSC761431), panobinostat (NSC761190), R-306465 (JNJ-16241199; NSC773264), adavosertib (NSC754352), TP-3654 (NSC805149), carboplatin (NSC241240), KSQ-4279 (NSC840948), and staurosporine (NSC755774) were obtained from the National Cancer Institute (NCI) Developmental Therapeutics Program Chemical Repository (34). The FDA-approved anticancer drug set is available from the NCI Developmental Therapeutics Program. […] The stock solutions were prepared in dimethyl sulfoxide (DMSO, Sigma-Aldrich, St. Louis, MO, cat. D2650) at 800-fold the tested concentration and stored at -70 degrees C prior to their use. All drugs and investigational agents were tested over a range starting from a high concentration at or near the clinical Cmax and decreasing in half-log increments. If the clinical Cmax for an agent had not been determined, the highest concentration tested was 10 microM.
2.3 Cell Culture. All cells were maintained in an incubator at 37 degrees C and 5% CO2 with 95% humidity. The PDC lines were cultured according to standard operating procedures established by the NCI PDMR. All PDCs were thawed and cultured in Matrigel-coated flasks prepared with a working solution of 1X Ham's F-12 nutrient mix, without supplementation (Invitrogen, cat. 11765054), 100 U/mL penicillin-streptomycin (Invitrogen, cat. 15140122), and 2.5% Matrigel (Corning Inc., cat. 354248) for the first three passages. The 857933-349-R-J2-PDC line was cultured in 6C/Colon 1B media, which includes advanced DMEM/F-12 (Thermo Fisher Scientific, cat. 12634028), 10 mM HEPES (Thermo Fisher Scientific, cat. 15630080), 1X GlutaMAX supplement (Thermo Fisher Scientific, cat. 35050061), 0.1 mg/mL primocin (InvivoGen, cat. ant-pm-2), 10% defined fetal bovine serum, heat inactivated (HyClone Laboratories Inc., cat. SH30070.03HI), 50% L-WRN conditioned media (ATCC, cat. CRL-3276), 1.25 mM N-Acetyl-L-cysteine (Sigma-Aldrich, cat. A9165), 10 mM nicotinamide (Sigma-Aldrich, cat. N0636), 1X B-27 supplement (Thermo Fisher Scientific, cat. 17504044), 1X N-2 supplement (Thermo Fisher Scientific, cat. 17502048), 10 microM Y-27632 dihydrochloride (Tocris Bioscience, cat. 1254), and 50 ng/mL human EGF recombinant protein (Thermo Fisher Scientific, cat. PHG0311). The 485176-168-R4-J1-PDC line was cultured in Panc media, which includes all 6C/Colon 1B media components plus 100 ng/mL human FGF-10 (Thermo Fisher Scientific, cat. 100-26), 500 nM SB-431542 (Selleckchem, cat. S1067), and gastrin (Tocris, cat. 3006).
[…]
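Note: viability read after seven days of drug exposure.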
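Throughout, for viability, T/C: luminescence signal used as a proxy for viable cells; 100% = DMSO vehicle control wells.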

Structure (SMILES): CC1COCCN1c1cc(C2(S(C)(=N)=O)CC2)nc(-c2ccnc3[nH]ccc23)n1 (configuration not stated) + CN(C)c1ccc(Nc2c3ccc(NC(=O)CCN4CCCC4)cc3nc3cc(NC(=O)CCN4CCCC4)ccc23)cc1
IC50 (curve of first compound, second compound 0.0316 µM): 1040 nM
IC50 (curve of first compound, second compound 0.1 µM): 934 nM
IC50 (curve of first compound, second compound 0.316 µM): 463 nM
IC50 (curve of first compound, second compound 1 µM): 626 nM
IC50 (curve of first compound, second compound 3.16 µM): < 31.6 nM
IC50 (curve of first compound, second compound 10 µM): < 31.6 nM
viability, T/C (second compound 0.0316 µM, first compound 0.0316 µM): 91.4%
viability, T/C (second compound 0.0316 µM, first compound 0.1 µM): 74.6%
viability, T/C (second compound 0.0316 µM, first compound 0.316 µM): 89.4%
viability, T/C (second compound 0.0316 µM, first compound 1 µM): 51.2%
viability, T/C (second compound 0.0316 µM, first compound 3.16 µM): 21.4%
viability, T/C (second compound 0.0316 µM, first compound 10 µM): 14%
viability, T/C (second compound 0.1 µM, first compound 0.0316 µM): 78.4%
viability, T/C (second compound 0.1 µM, first compound 0.1 µM): 71.3%
viability, T/C (second compound 0.1 µM, first compound 0.316 µM): 89.4%
viability, T/C (second compound 0.1 µM, first compound 1 µM): 48.1%
viability, T/C (second compound 0.1 µM, first compound 3.16 µM): 22.4%
viability, T/C (second compound 0.1 µM, first compound 10 µM): 14.6%
viability, T/C (second compound 0.316 µM, first compound 0.0316 µM): 75.7%
viability, T/C (second compound 0.316 µM, first compound 0.1 µM): 67.3%
viability, T/C (second compound 0.316 µM, first compound 0.316 µM): 54.2%
viability, T/C (second compound 0.316 µM, first compound 1 µM): 41.2%
viability, T/C (second compound 0.316 µM, first compound 3.16 µM): 24.4%
viability, T/C (second compound 0.316 µM, first compound 10 µM): 14.1%
viability, T/C (second compound 1 µM, first compound 0.0316 µM): 42.9%
viability, T/C (second compound 1 µM, first compound 0.1 µM): 80.2%
viability, T/C (second compound 1 µM, first compound 0.316 µM): 65%
viability, T/C (second compound 1 µM, first compound 1 µM): 41.2%
viability, T/C (second compound 1 µM, first compound 3.16 µM): 23.6%
viability, T/C (second compound 1 µM, first compound 10 µM): 16%
viability, T/C (second compound 3.16 µM, first compound 0.0316 µM): 34.6%
viability, T/C (second compound 3.16 µM, first compound 0.1 µM): 45.8%
viability, T/C (second compound 3.16 µM, first compound 0.316 µM): 34%
viability, T/C (second compound 3.16 µM, first compound 1 µM): 29.5%
viability, T/C (second compound 3.16 µM, first compound 3.16 µM): 18.3%
viability, T/C (second compound 3.16 µM, first compound 10 µM): 13.2%
viability, T/C (second compound 10 µM, first compound 0.0316 µM): 6.13%
viability, T/C (second compound 10 µM, first compound 0.1 µM): 5.83%
viability, T/C (second compound 10 µM, first compound 0.316 µM): 5.26%
viability, T/C (second compound 10 µM, first compound 1 µM): 5.47%
viability, T/C (second compound 10 µM, first compound 3.16 µM): 3.58%
viability, T/C (second compound 10 µM, first compound 10 µM): 1.72%

Structure (SMILES): CC(=O)O[C@H]1C(=O)[C@@]2(C)[C@H]([C@H](OC(=O)c3ccccc3)[C@]3(O)C[C@H](OC(=O)[C@H](O)[C@@H](NC(=O)c4ccccc4)c4ccccc4)C(C)=C1C3(C)C)[C@]1(OC(C)=O)CO[C@@H]1C[C@@H]2O
viability, T/C (compound 0.0316 µM): 17.6% and 17.3% and 20.3%
viability, T/C (compound 0.1 µM): 14% and 14.4% and 13.2%
viability, T/C (compound 0.316 µM): 12.3% and 12.7% and 10.3%
viability, T/C (compound 1 µM): 12.2% and 12% and 10%
viability, T/C (compound 3.16 µM): 9.72% and 10.1% and 7.81%
viability, T/C (compound 10 µM): 9.54% and 9.71% and 8.27%
IC50 (curve of compound): < 31.6 nM

Structure (SMILES): CC1COCCN1c1cc(-c2ccnn2C)c2ccnc(-c3ccn[nH]3)c2n1 (configuration not stated)
viability, T/C (compound 0.0316 µM): 85.1% and 78.3% and 94.5%
viability, T/C (compound 0.1 µM): 52.2% and 35.1% and 51.9%
viability, T/C (compound 0.316 µM): 29.6% and 23.1% and 25.6%
viability, T/C (compound 1 µM): 15.7% and 12.7% and 13%
viability, T/C (compound 3.16 µM): 5.78% and 5.92% and 5.17%
viability, T/C (compound 10 µM): 3.61% and 3.66% and 3.51%
IC50 (curve of compound): 113 nM and 71 nM and 109 nM

The next lines start with results.

IC50 (curve of compound): 749 nM and 598 nM and 932 nM
Structure (SMILES): C=CCn1c(=O)c2cnc(Nc3ccc(N4CCN(C)CC4)cc3)nc2n1-c1cccc(C(C)(C)O)n1
viability, T/C (compound 0.0316 µM): 85% and 95.4% and 95.7%
viability, T/C (compound 0.1 µM): 83.5% and 87.5% and 102%
viability, T/C (compound 0.316 µM): 82.6% and 74.1% and 110%
viability, T/C (compound 1 µM): 39.1% and 30.6% and 46.6%
viability, T/C (compound 3.16 µM): 16.7% and 15% and 16.4%
viability, T/C (compound 10 µM): 11.8% and 9.58% and 9.6%

IC50 (curve of compound): 8650 nM and 6140 nM and 1700 nM
Structure (SMILES): CCCS(=O)(=O)Nc1ccc(F)c(C(=O)c2c[nH]c3ncc(-c4ccc(Cl)cc4)cc23)c1F
viability, T/C (compound 0.0316 µM): 98.3% and 98.1% and 104%
viability, T/C (compound 0.1 µM): 89.9% and 103% and 86.1%
viability, T/C (compound 0.316 µM): 109% and 84.8% and 76.3%
viability, T/C (compound 1 µM): 75% and 74.6% and 46.8%
viability, T/C (compound 3.16 µM): 71.8% and 76.7% and 53.5%
viability, T/C (compound 10 µM): 46.6% and 34.8% and 20.9%

IC50 (curve of compound): > 10000 nM
Structure (SMILES): COc1ncnc(C2CC2)c1-c1ncc2cnn(Cc3ccc(-c4nc(C(F)(F)F)cn4C(C)C)cc3)c2n1
viability, T/C (compound 0.0316 µM): 72.1% and 66.5% and 79.3%
viability, T/C (compound 0.1 µM): 70% and 60.2% and 82.1%
viability, T/C (compound 0.316 µM): 54.8% and 66.5% and 102%
viability, T/C (compound 1 µM): 72.7% and 57.8% and 88.1%
viability, T/C (compound 3.16 µM): 64.7% and 64.6% and 68%
viability, T/C (compound 10 µM): 59.5% and 68.5% and 65.4%
